A short description of data set [1]: Stability test in mouse liver microsomes. The class given is in vitro ADME, CD-1 mice. Conditions: mouse liver microsomes 0.5 mg/mL, 1.0 μM substrate; for CLint scaled at 1 μM / half-life at 1 μM: CD-1, pH 7.4; for CLint scaled at 1 μM: read-out: MLM 0.5 CLint(liver); for half-life at 1 μM: read-out: MLM 0.5 T½. On the procedure:
(§1) The phase I metabolic stability of the compounds in liver microsomes of CD-1 mice, Sprague-Dawley rats, beagle dogs, cynomolgus monkeys, and humans was assessed.
(§2) The animal and human liver microsomes used in the test system were purchased from Xenotech, Corning, or other qualified suppliers and stored in a freezer at a temperature below −60° C. prior to use.
(§3) The test samples and control compounds were separately incubated with animal and human liver microsomes at 37±1° C. for a period of incubation time up to 60 min. The samples were removed at the indicated time points, and the reaction was stopped with acetonitrile or another organic solvent containing an internal standard. After centrifugation, the resulting supernatants were assayed by the liquid chromatography-tandem mass spectrometry (LC-MS/MS) method.
(§4) 73.21 g of dipotassium hydrogen phosphate trihydrate and 10.78 g of potassium dihydrogen phosphate were dissolved in 4000 mL of ultrapure water. The solution was adjusted to pH 7.40±0.10 with 10% phosphoric acid or 1 M potassium hydroxide to make a final concentration of 100 mM.
(§5) The test sample powder was prepared into a stock solution at a certain concentration with DMSO or another organic solvent, which was then further diluted with a suitable organic solvent.
(§6) Microsomes of each species were diluted into a 2× working solution with a 100 mM potassium phosphate buffer. The final concentration of the microsomes in the reaction system was 0.5 mg/mL.
(§7) An appropriate amount of nicotinamide adenine dinucleotide phosphate (NADP) and isocitric acid (ISO) powder was weighed out, dissolved in a magnesium chloride solution, and shaken and mixed well. An appropriate amount of isocitrate dehydrogenase (IDH) was added, and the mixture was mixed well by gently turning upside down. The final concentrations in the reaction system were: 1 mM NADP, 1 mM magnesium chloride, 6 mM ISO, and 1 unit/mL IDH.
(§8) The stop solution was prepared with acetonitrile or another organic solvent containing an internal standard (tolbutamide or another suitable compound). The prepared stop solution was stored in a freezer at 2-8° C.
(§9) Incubation was performed in a 96-well plate. Eight incubation plates were prepared and designated T0, T5, T15, T30, T45, T60, Blank60, and NCF60, respectively. The first 6 plates corresponded to reaction time points of […], respectively. No test sample or control compound was added to the Blank60 plate, and samples were taken after 60 min of incubation. In the NCF60 plate, incubation was performed for 60 min using the potassium phosphate buffer instead of the NADPH regeneration system solution. Three replicates were made for samples in all conditions.
(§10) The microsomes and the test sample or control compound were mixed, and then the incubation plates Blank60, T5, T15, T30, T45, and T60 except for TO and NCF60 were placed in a 37° C. water bath for pre-incubation for about 10 min. In the incubation plate T0, a stop solution was first added, followed by addition of the NADPH regeneration system working solution, and 98 μL of the potassium phosphate buffer was added to each sample well of the incubation plate NCF60 to initiate the reaction. After the pre-incubation of the incubation plates Blank60, T5, T15, T30, T45, and T60 was completed, 98 μL of the NADPH regeneration system working solution was added to each sample well to initiate the reaction. The reaction temperature was 37±1° C., the final volume of the reaction was 200 μL, and the reaction system included 0.5 mg/mL microsomes, 1.0 μM substrate, 1 mM NADP, 6 mM ISO, and 1 unit/ml IDH.
(§11) At 5 min, 15 min, […], 45 min, and 60 min, a cold stop solution containing an internal standard was added to the reaction plate to stop the reaction.
(§12) All the reaction plates after the reaction was stopped were shaken well and centrifuged at 3220×g at 4° C. for 20 min. After the supernatant was diluted at a certain ratio, LC-MS/MS analysis was performed. […]
For orientation: Microsomes from liver hold many membrane-bound enzymes, among them those of drug oxidation.

A further data set deals with KIF18A (Homo sapiens (Human), UniProt Q8NI77). Nature of the data set: KIF18A enzymatic activity inhibition, ADP-Glo kit. The class given is biochemical. Conditions: 4 nM KIF18A, 30 μM ATP. A digest of the protocol: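 KIF18A (1467) at 4 nM was preincubated with compound for 20 min at 37 °C in 15 mM Tris pH 7.5, 10 mM MgCl2, 0.01% Pluronic F-68. The reaction was started with 30 μM ATP and ran 15 min at room temperature.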
Sequence of KIF18A (Q8NI77 1-467): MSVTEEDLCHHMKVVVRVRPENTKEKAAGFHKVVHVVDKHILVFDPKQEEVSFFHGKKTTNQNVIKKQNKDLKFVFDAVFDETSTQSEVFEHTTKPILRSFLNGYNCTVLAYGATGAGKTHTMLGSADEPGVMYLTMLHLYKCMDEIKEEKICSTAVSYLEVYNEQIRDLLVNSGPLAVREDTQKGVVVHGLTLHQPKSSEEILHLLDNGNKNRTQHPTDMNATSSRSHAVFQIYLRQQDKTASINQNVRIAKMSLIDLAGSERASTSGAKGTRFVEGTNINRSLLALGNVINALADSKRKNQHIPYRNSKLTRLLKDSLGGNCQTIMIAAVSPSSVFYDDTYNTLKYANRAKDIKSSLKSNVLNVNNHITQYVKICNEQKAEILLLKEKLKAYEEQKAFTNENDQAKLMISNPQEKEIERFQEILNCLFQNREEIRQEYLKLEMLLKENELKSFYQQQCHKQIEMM

Data set [2] is described as follows: Stability test in rat liver microsomes. The class given is in vitro ADME, Sprague-Dawley rats. Conditions: rat liver microsomes 0.5 mg/mL, 1.0 μM substrate; for CLint scaled at 1 μM / half-life at 1 μM: Sprague-Dawley, pH 7.4; for CLint scaled at 1 μM: read-out: RLM 0.5 CLint(liver); for half-life at 1 μM: read-out: RLM 0.5 T½. On the procedure: as §1, §2, §3, §4, §5, §6, §7, §8, §9, §10, §11, §12

The target in data set [3] is cytochrome oxidase P450 2C19 (Homo sapiens (Human), UniProt P33261). Nature of the data set: Inhibition of cytochrome oxidase P450 2C19. The class given is in vitro ADME. Conditions: liver microsomes, CYP2C19.
Sequence of cytochrome oxidase P450 2C19 (P33261 whole entry): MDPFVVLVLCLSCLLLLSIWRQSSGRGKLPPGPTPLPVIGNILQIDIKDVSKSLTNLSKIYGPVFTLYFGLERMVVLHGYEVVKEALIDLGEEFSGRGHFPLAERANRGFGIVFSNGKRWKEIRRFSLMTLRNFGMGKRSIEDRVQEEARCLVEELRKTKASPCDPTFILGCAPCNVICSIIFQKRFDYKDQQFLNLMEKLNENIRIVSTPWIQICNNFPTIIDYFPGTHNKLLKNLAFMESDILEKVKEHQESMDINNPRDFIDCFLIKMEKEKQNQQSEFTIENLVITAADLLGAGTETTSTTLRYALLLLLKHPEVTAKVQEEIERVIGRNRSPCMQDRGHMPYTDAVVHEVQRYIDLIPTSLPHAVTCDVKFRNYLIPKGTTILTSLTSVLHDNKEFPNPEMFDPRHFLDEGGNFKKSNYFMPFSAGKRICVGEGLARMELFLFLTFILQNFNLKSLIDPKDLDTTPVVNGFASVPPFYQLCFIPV
Data set [4] concerns the target cytochrome oxidase P450 2C9 (Homo sapiens (Human), UniProt P11712). Description: Inhibition of cytochrome oxidase P450 2C9. The class given is in vitro ADME. Conditions: liver microsomes, CYP2C9. As for the experimental part:
100 mM K-Buffer: 9.5 mL of stock solution A was mixed with 40.5 mL of stock solution B, the total volume was adjusted to 500 mL with ultrapure water, and the buffer was titrated to pH 7.4 with KOH or H3PO4. The test compound powder was prepared into a stock solution at a certain concentration with DMSO or another organic solvent, which was then further diluted with a proper organic solvent. The liver microsomal in vitro incubation system for the CYP450 enzyme metabolism phenotype study was a biochemical reaction of prepared liver microsomes supplemented with a redox coenzyme and an enzyme-specific selective inhibitor under simulated physiological temperature and environment conditions. The concentration of the parent drug or a metabolite thereof in the incubation solution was determined by LC-MS/MS.

Data set [5] has as its target cytochrome oxidase P450 3A4 (Homo sapiens (Human), UniProt P08684). Nature of the data set: Inhibition of cytochrome oxidase P450 3A4 (Midazolam). The class given is in vitro ADME. Conditions: liver microsomes, CYP3A4, Midazolam.
Data set [6] has as its target cytochrome oxidase P450 1A2 (Homo sapiens (Human), UniProt P05177). Description: Inhibition of cytochrome oxidase P450 1A2. The class given is in vitro ADME. Conditions: liver microsomes, CYP1A2.

Usually IC50 stands for the point on the concentration scale where inhibition reaches its midpoint. A high value points to weaker potency in that assay.

The structures appear in SMILES notation.

Sequence of cytochrome oxidase P450 2C9 (P11712 whole entry): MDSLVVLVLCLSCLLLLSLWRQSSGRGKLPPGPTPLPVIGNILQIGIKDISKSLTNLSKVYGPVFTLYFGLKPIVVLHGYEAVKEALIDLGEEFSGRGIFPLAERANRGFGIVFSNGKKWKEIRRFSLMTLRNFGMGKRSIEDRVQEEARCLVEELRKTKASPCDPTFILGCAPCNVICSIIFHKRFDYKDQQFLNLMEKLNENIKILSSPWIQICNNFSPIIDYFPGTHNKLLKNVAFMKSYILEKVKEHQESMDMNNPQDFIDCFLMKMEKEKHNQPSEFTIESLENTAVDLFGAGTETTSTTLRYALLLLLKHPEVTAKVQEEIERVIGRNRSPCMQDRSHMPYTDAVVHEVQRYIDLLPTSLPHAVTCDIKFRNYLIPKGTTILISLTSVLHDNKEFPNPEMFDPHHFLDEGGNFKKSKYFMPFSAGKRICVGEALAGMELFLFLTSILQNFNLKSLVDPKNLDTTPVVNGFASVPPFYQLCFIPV
Sequence of cytochrome oxidase P450 1A2 (P05177 whole entry): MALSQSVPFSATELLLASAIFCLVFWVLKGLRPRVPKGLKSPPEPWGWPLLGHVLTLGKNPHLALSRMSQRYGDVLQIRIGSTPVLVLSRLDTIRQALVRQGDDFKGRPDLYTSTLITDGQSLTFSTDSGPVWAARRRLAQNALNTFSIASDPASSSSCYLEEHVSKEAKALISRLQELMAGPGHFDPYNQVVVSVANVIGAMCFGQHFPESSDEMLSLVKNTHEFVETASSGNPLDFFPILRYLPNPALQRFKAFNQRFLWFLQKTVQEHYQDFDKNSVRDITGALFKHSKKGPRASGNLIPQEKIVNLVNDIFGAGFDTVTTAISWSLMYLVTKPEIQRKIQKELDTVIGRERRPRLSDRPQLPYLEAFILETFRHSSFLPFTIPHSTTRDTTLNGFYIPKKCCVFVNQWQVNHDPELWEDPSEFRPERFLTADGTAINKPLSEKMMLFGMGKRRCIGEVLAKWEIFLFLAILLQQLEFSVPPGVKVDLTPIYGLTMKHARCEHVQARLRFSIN
Sequence of cytochrome oxidase P450 3A4 (P08684 whole entry): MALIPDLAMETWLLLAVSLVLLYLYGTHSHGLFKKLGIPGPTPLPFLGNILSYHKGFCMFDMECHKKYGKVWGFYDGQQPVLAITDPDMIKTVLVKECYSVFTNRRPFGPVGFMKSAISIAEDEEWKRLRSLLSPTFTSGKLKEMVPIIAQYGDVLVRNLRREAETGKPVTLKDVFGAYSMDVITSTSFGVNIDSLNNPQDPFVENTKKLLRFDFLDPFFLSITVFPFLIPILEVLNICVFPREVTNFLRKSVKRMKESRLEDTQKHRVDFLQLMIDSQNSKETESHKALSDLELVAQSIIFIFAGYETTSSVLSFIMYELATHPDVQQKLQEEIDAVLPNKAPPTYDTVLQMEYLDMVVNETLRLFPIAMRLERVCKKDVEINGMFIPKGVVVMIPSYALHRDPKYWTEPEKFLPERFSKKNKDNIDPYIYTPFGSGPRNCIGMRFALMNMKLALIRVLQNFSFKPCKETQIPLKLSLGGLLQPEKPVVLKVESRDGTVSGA

With `O=C(Nc1cc2ccsc2c(N2CCC(F)(F)CC2)n1)c1ccc(NS(=O)(=O)CCO)cc1N1CCC2(CC1)CC2` [Compound 15], in data set [1], the CLint scaled at 1 μM stood at 50.6 mL/min/kg and the half-life at 1 μM was determined as 1.81 h. This compound also yielded an IC50 on KIF18A of 126 nM. In data set [2], the CLint scaled at 1 μM was determined as 17.2 mL/min/kg and the half-life at 1 μM was determined as 2.42 h.

`Cc1cc(NC(=O)c2ccc(NS(=O)(=O)CCO)cc2N2CC3CCC(C3)C2)nc(N2CCC(F)(F)CC2)n1` [Compound 3] showed an IC50 against KIF18A of 19.8 nM. This counts as double-digit nanomolar.

Take `O=C(Nc1cn2ncnc2c(N2CCC(F)(F)CC2)n1)c1ccc(NS(=O)(=O)CCO)cc1N1CCC2(CC1)CC2` [Compound 23]: in data set [1], the CLint scaled at 1 μM was less than 38 mL/min/kg and the half-life at 1 μM was more than 2.42 h. On KIF18A, this compound came in with an IC50 of 3.6 nM. Further, in data set [2], the CLint scaled at 1 μM was less than 17.3 mL/min/kg and the half-life at 1 μM is more than 2.42 h.

Regarding `O=C(Nc1cn2c(F)cnc2c(N2CCC(F)(F)CC2)n1)c1ccc(NS(=O)(=O)CCO)cc1N1CCC2(CC1)CC2` [Compound 34], the half-inhibitory concentration (IC50) in data set [3] was more than 10000 nM; in data set [4], 4460 nM; in data set [5], more than 10000 nM; in data set [6] it was more than 10000 nM. In addition, the figures for the CLint scaled at 1 μM in data set [1] and in data set [2] were 14.3 mL/min/kg and 4.4 mL/min/kg, respectively. Besides, the results for the half-life at 1 μM in data set [1] and in data set [2] were 6.34 h and 9.33 h, respectively.

As for `O=C(Nc1cn2cnnc2c(N2CCC(F)(F)CC2)n1)c1ccc(NS(=O)(=O)CCO)cc1N1CCC2(CC1)CC2` [Compound 24], in data set [1], the “MLM 0.5 CLint(liver)” value is reported as 64.7 mL/min/kg and the “MLM 0.5 T½” value was 1.41 h. Also, it took 3.7 nM to reach half-maximal inhibition on KIF18A (IC50). Also, in data set [2], the “RLM 0.5 CLint(liver)” value was 29.5 mL/min/kg and the “RLM 0.5 T½” value was found to be 1.41 h.

Take `O=C(Nc1cn2ccnc2c(N2CCC(F)(F)CC2)n1)c1ccc(NS(=O)(=O)CCO)cc1N1CCC2(CC1)CC2` [Compound 8]: the IC50 in data set [3] is more than 10000 nM; in data set [4], 2660 nM; in data set [5] it was more than 10000 nM; on KIF18A it was 21.3 nM; in data set [6], more than 10000 nM. For the same compound, the CLint scaled at 1 μM in data set [1] was 219 mL/min/kg; in data set [2], less than 17.3 mL/min/kg. In addition, the half-life at 1 μM in data set [1] was 0.418 h; in data set [2], more than 2.42 h.

Consider `CS(=O)(=O)Nc1ccc(C(=O)Nc2cn3ccnc3c(N3CCC(F)(F)CC3)n2)c(N2CC3CCC(C3)C2)c1` [Compound 19], for which the IC50 is more than 10000 nM in data set [3], 9380 nM in data set [4], more than 10000 nM in data set [5] and more than 10000 nM in data set [6]. The CLint scaled at 1 μM worked out at 52.3 mL/min/kg in data set [1] and 27.3 mL/min/kg in data set [2]. The values for the half-life at 1 μM in data set [1] and in data set [2] were 1.75 h and 1.52 h, respectively.

On to `O=C(Nc1cc2cccnc2c(N2CCC(F)(F)CC2)n1)c1ccc(NS(=O)(=O)CCO)cc1N1CCC2(CC1)CC2` [Compound 21], for which the half-maximal inhibitory concentration (IC50) in data set [3], in data set [4], in data set [5] and in data set [6] was more than 10000 nM each time. In addition, the CLint scaled at 1 μM is less than 38 mL/min/kg in data set [1] and less than 17.3 mL/min/kg in data set [2]. Moreover, the half-life at 1 μM in data set [1] and in data set [2] was more than 2.42 h in each case.

With `O=C(Nc1cc2c(c(N3CCC(F)(F)CC3)n1)COC2)c1ccc(NS(=O)(=O)CCO)cc1N1CCC2(CC1)CC2` [Compound 14], in data set [1], the CLint scaled at 1 μM came to 54.1 mL/min/kg and the half-life at 1 μM stood at 1.69 h. The same compound showed a 50% inhibitory concentration (IC50) on KIF18A of 28.7 nM. Moreover, in data set [2], the CLint scaled at 1 μM turned out to be 34.3 mL/min/kg and the half-life at 1 μM came out at 1.21 h.

Take `O=C(Nc1cc2ccccc2c(N2CCC(F)(F)CC2)n1)c1ccc(NS(=O)(=O)CCO)cc1N1CCC2(CC1)CC2` [Compound 6]: the IC50 in data set [3] is more than 10000 nM; in data set [4] it was 5280 nM; in data set [5], more than 10000 nM; against KIF18A it was 95.6 nM; in data set [6], more than 10000 nM. Further, the results for the CLint scaled at 1 μM in data set [1] and in data set [2] were less than 38 mL/min/kg and less than 17.3 mL/min/kg, respectively. Also, the half-life at 1 μM in data set [1] and in data set [2] was more than 2.42 h each time.

For the compound `CS(=O)(=O)Nc1ccc(C(=O)Nc2cn3ccnc3c(N3CCC(F)(F)CC3)n2)c(N2CCC3(CC2)CC3)c1` [Compound 10], in data set [1], the CLint scaled at 1 μM was determined as 182 mL/min/kg and the half-life at 1 μM was found to be 0.502 h. Moreover, the concentration for half-maximal inhibition (IC50) against KIF18A is 25.7 nM. In addition, in data set [2], the CLint scaled at 1 μM was found to be 19.3 mL/min/kg and the half-life at 1 μM amounted to 2.16 h.

Compound `O=C(Nc1cc2cc[nH]c2c(N2CCC(F)(F)CC2)n1)c1ccc(NS(=O)(=O)CCO)cc1N1CCC2(CC1)CC2` [Compound 22] registered a half-maximal inhibitory concentration (IC50) against KIF18A of 26.4 nM.

As for `CS(=O)(=O)Nc1ccc(C(=O)Nc2cc3cc[nH]c3c(N3CCC(F)(F)CC3)n2)c(N2CCC3(CC2)CC3)c1` [Compound 47], the concentration for half-maximal inhibition (IC50) is 980 nM in data set [3], 180 nM in data set [4], 240 nM in data set [5] and more than 10000 nM in data set [6]. Further, the CLint scaled at 1 μM in data set [1] was 2.3 mL/min/kg; in data set [2] it was 9 mL/min/kg. Besides, the half-life at 1 μM in data set [1] turned out to be 40.3 h; in data set [2] it was 4.59 h.

Compound `O=C(Nc1cn2ccnc2c(N2CCC(F)(F)CC2)n1)c1ccc(NS(=O)(=O)CCO)cc1N1CC2CCC(C2)C1` [Compound 17] gave a 50% inhibitory concentration (IC50) on KIF18A of 16.4 nM.
